Laboratory results from US11236102B2, “Oxabicycloheptane prodrugs” (Lixte Biotechnology, Inc., priority 2015, dated 2022).
Values joined by “and” are separate entries in the source; they are usually repeats but may differ in a detail not shown here. Equal entries are not always repeated. Where two headings read alike, the source gives them in different places.

Columns and labels:
[1] = Pharmacokinetic study of 151 (iv, oral) in SD rats: 151 and 100 in plasma; assay type: in vivo; details: for AUC(0-t): read-out: AUC0-t of 151; for AUC(0-inf): read-out: AUC0-∞ of 151; for concentration at 0.5 h: 0.50 h
Experimental: The absolute bioavailability was evaluated.
To each sample, 160 μL of acetonitrile were added.
The mass spectrometer was operated in the positive mode.
Quantification was achieved by the external standard method.
Calibration Curve for Plasma Samples
LB100 concentrations of the LB151 plasma samples were also measured and pharmacokinetic parameters were calculated.

[2] = Liver S9 stability and metabolite formation; assay type: in vitro ADME, rat, dog, monkey and human; details: presence and absence of NADPH, cross species
Experimental: The stability (whole blood, liver S9, SGF, SIF, and PBS buffer) and MDCK-MDR1 monolayer permeability of LB100, LB-100 Carbonate and LB-100 POM were evaluated.
Samples were analyzed by LC-MS/MS using a SCIEX QTrap 5500 mass spectrometer coupled with an Agilent 1290 HPLC Infinity series, a CTC PAL chilled autosampler, all controlled by Analyst software. After separation on a C18 reverse phase HPLC column (Acquity UPLC HSS T3, 1.8, 2.1×50 mm) using an acetonitrile-water gradient system, peaks were analyzed by mass spectrometry (MS) using […] ionization in MRM mode.
Experimental Procedure: Test agent is incubated in duplicate with liver S9 at 37° C. The reaction contains liver S9 protein in 100 mM potassium phosphate, 2 mM NADPH, 3 mM MgCl2, pH 7.4. A control is run for each test agent omitting NADPH to detect NADPH-free degradation. At indicated times, an aliquot is removed from each experimental and control reaction and mixed with an equal volume of ice-cold Stop Solution (methanol, containing internal standard propranolol). Stopped reactions are incubated for 10 minutes at −20° C. Samples are centrifuged to remove precipitated protein, and supernatants are analyzed by LC/MS/MS to quantitate remaining parent and the formation of metabolites. Data are reported as % remaining by dividing by the time zero concentration value.

[3] = male, Sprague-Dawley, rat, in vivo, iv, 1 mg/kg, plasma, 151 IV 1.0 mg/kg, SD rats, individual rats
[4] = male, Sprague-Dawley, rat, in vivo, iv, 1 mg/kg, plasma, 151 IV 1.0 mg/kg, SD rats, mean
[5] = male, Sprague-Dawley, rat, in vivo, po, 10 mg/kg, 151 PO 10 mg/kg, SD rats, individual rats
[6] = male, Sprague-Dawley, rat, in vivo, po, 10 mg/kg, 151 PO 10 mg/kg, SD rats, mean
[7] = male, Sprague-Dawley, rat, in vivo, po, 10 mg/kg, plasma, 151 PO 10 mg/kg, SD rats, individual rats
[8] = male, Sprague-Dawley, rat, in vivo, po, 10 mg/kg, plasma, 151 PO 10 mg/kg, SD rats, mean
[9] = plasma, 151 IV 1.0 mg/kg, SD rats, individual rats, 1 mg/kg
[10] = plasma, 151 PO 10 mg/kg, SD rats, individual rats, 10 mg/kg

## COC(=O)C1C2CCC(O2)C1C(=O)N1CCN(C)CC1 (stereo not shown) [Compound 151]
[1]; [3]
  MRT: 0.91 h
  AUC(0-t): 1290 ng·h/mL
  AUC(0-inf): 1310 ng·h/mL
[1]; male, Sprague-Dawley, rat, in vivo, iv, 1 mg/kg, plasma, 151 IV 1.0 mg/kg, SD rats, individual rats, read-out: T1/2 of 151 (converted)
  half-life: 0.91 h
[1]; [4]
  MRT: 0.86 h
  AUC(0-t): 1170 ng·h/mL
  AUC(0-inf): 1180 ng·h/mL
[1]; male, Sprague-Dawley, rat, in vivo, iv, 1 mg/kg, plasma, 151 IV 1.0 mg/kg, SD rats, mean, read-out: T1/2 of 151 (converted)
  half-life: 0.89 h
[1]; [5]
  concentration at 0.25 h: 2230 ng/mL
  concentration at 0.5 h: 2450 ng/mL
  concentration at 1 h: 2200 ng/mL
  concentration at 2 h: 1100 ng/mL
  concentration at 3 h: 521 ng/mL
  concentration at 5 h: 125 ng/mL
  concentration at 9 h: 52.1 ng/mL
[1]; [6]
  concentration at 0.25 h: 2330 ng/mL
  concentration at 0.5 h: 3240 ng/mL
  concentration at 1 h: 2440 ng/mL
  concentration at 2 h: 1310 ng/mL
  concentration at 3 h: 658 ng/mL
  concentration at 5 h: 139 ng/mL
  concentration at 9 h: 52.1 ng/mL
[1]; male, Sprague-Dawley, rat, in vivo, po, 10 mg/kg, 151 PO 10 mg/kg, SD rats, 7.0 h, mean
  concentration at 7 h: 43.8 ng/mL
[1]; male, Sprague-Dawley, rat, in vivo, po, 10 mg/kg, 151 oral 10 mg/kg, SD rats (n=3), read-out: mean half-life (converted)
  half-life: 1.26 h
[1]; [7]
  Cmax: 2450 ng/mL
  MRT: 1.86 h
  AUC(0-t): 5400 ng·h/mL
  AUC(0-inf): 5500 ng·h/mL
[1]; male, Sprague-Dawley, rat, in vivo, po, 10 mg/kg, plasma, 151 PO 10 mg/kg, SD rats, individual rats, read-out: T1/2 of 151 (converted)
  half-life: 1.33 h
[1]; [8]
  Cmax: 3240 ng/mL
  MRT: 1.81 h
  AUC(0-t): 6340 ng·h/mL
  AUC(0-inf): 6440 ng·h/mL
[1]; male, Sprague-Dawley, rat, in vivo, po, 10 mg/kg, plasma, 151 PO 10 mg/kg, SD rats, mean, read-out: T1/2 of 151 (converted)
  half-life: 1.26 h
[1]; male, Sprague-Dawley, rat, in vivo, 151 oral 10 mg/kg, based on AUC0-∞, read-out: absolute bioavailability (F)
  bioavailability: 54.6%
[1]; male, Sprague-Dawley, rat, in vivo, plasma, 151 PO 10 mg/kg, SD rats, mean
  Tmax: 0.5 h
[1]; [9]
  AUC0-t of 151: 1045 ng·h/mL
  AUC0-∞ of 151: 1047 ng·h/mL
  MRT of 151: 0.81 h
  T1/2 of 151: 0.87 h
[1]; [10]
  AUC0-t of 151: 6423 ng·h/mL and 7199 ng·h/mL
  AUC0-∞ of 151: 6484 ng·h/mL and 7328 ng·h/mL
  Cmax of 151: 3934 ng/mL and 3343 ng/mL
  MRT of 151: 1.62 h and 1.95 h
  T1/2 of 151: 1.10 h and 1.35 h
[2]
  metabolites observed in liver S9 stability study: No metabolites were observed
